The values below come from patent US7053116B2, “Methods for protecting cells from amyloid toxicity and for inhibiting amyloid protein production” (The Salk Institute for Biological Studies, priority 2000, dated 2006).

Like-named read-outs stand apart in the source and are kept apart here. No end group written: not given here.

The test system of data set [1] is B12 cells. Particulars: cited from earlier work; for enhancement of MTT formazan exocytosis: B12 cells, Liu and Schubert 1997; for induction of MTT formazan exocytosis by protein fibrils: fibrils formed under denaturing conditions, Liu and Schubert 1998.
For another data set, the system named is Primary astrocytes. The data set can be described thus: Astrocyte culture, quantitation of secreted cytokines (ELISA). The conditions noted are these: astrocyte conditioned media; 10 μM peptide for 12 hr; mean ±S.E.M. In kind it is cell-based, rat. For orientation: An ELISA detects its analyte on a solid surface through an enzyme-linked reagent.
The test system of data set [2] is B12 cells. The conditions noted are these: for ability to induce MTT formazan exocytosis (in words): peptide preparations.
Experimental: MTT reduction and MTT formazan exocytosis MTT reduction by cultured cells was performed in 96-well microtiter plates containing 100 μl of medium per well. Cells (about 10^4 cells per well) were plated in Dulbecco's modified Eagles's medium (DMEM) supplemented with 5% dialyzed fetal calf serum and incubated overnight before drug treatment. MTT reduction was started by adding 10 μl per well of a 2.5 mg/ml MTT stock in phosphate-buffered saline (PBS) and terminated by adding 100 μl of a solubilization solution containing 50% N,N′-dimethylformamide and 20% sodium dodecyl sulfate (SDS; pH 4.8). […] MTT reduction is determined the next day by determining absorbance at 570 nm with an automatic microtiter plate reader, using 630 nm as the reference wavelength.
MTT reduction by living cells is initially observed as intracellular formazan granules, and needle-like formazan crystals begin to appear on the cell surface after about 30 min of MTT reduction.
Amyloid peptide-induced MTT formazan exocytosis was determined with B12 cells, as described herein. B12 cells on 35 mm dishes were treated with 10 μM for 16 hr at 37° C., followed by 30 min MTT reduction. The percentage of cells exocytosing MTT formazan with morphology similar to that induced by Aβ was then determined.
Data set [3] deals with Aβ-induced MTT formazan exocytosis. The data set can be described thus: Blocking of Aβ-induced MTT formazan exocytosis by amyloid-binding agents. In kind it is cell-based. On the procedure:
MTT formazan exocytosis is assessed by microscopic observation. The needle-like crystals on the surface of the cells incubated with MTT, which are easily visible under a light microscope, represent exocytosed MTT formazan (Liu et al. (1997) J. Neurochem. 69:581–593). The percentages of cells exocytosing MTT formazan were determined by counting 300 cells in multiple fields using the presence of needle-like formazan crystals on cell surface as an indicator of MTT formazan exocytosis. A cell is counted as exocytosing MTT formazan when several needle-like formazan crystals are clearly visible.
The involvement of β-sheeted amyloid fibrils in generating this phenomenon is supported by the observation that amyloid-binding agents such as Congo red block 90% of the Aβ-induced MTT formazan exocytosis. Under denaturing conditions, non-amyloidogenic proteins such as insulin and glucagon also form protein fibrils with the same cross β structure as that in amyloid fibrils (Glenner et al., J. Histochem. Cytochem. 22:1141–1158 (1974) and Burke et al. Biochem. 11:2435–2439 (1972)). […] Therefore, the ability to enhance cellular MTT formazan exocytosis is a common property of protein fibrils having a cross β-pleated sheet structure. […]

Data set [4] has as its system Hippocampal neurons. Kind of data set: Hippocampal neuronal cultures, assessment of neuronal viability.
Experimental: (§1) The cells were suspended in a serum-free medium and plated on polylysine-coated 24-well tissue culture plates (1×10^6 cells/ml). The serum-free medium used is a modified minimal essential medium containing 30 mM glucose, 2 mM glutamine, 1 mM pyruvate, penicillin (100 U/ml), streptomycin (100 μg/ml), and N1supplements (Sigma). After 3 days in culture, the neurons acquire long and extensively branched neurites. Half of the medium in each dish was then replaced with fresh medium, and test reagents (20 μM peptide solutions) were added. Neuron survival was assessed 48 hours after treatment. Neurons were judged to be viable by the intactness of their neurites and soma (absence of vacuoles and the ability to exclude trypan blue). Five fields (˜80 neurons/field) were scored in each culture. The number of viable neurons in untreated cultures was designated as 100% survival.
Another data set concerns astrocytes. Kind of data set: Astrocyte activation indicated by morphological changes. The format is cell-based, rat. The conditions noted are these: peptide preparations.
Data set [5] relates to Hippocampal neurons.
Experimental: as §1

Experimental for Primary astrocytes: Astrocyte culture and quantitation of secreted cytokines Primary astrocytes were prepared from the cortices of 2-day-old Sprague-Dawley rat pups according the method of Levison and McCarthy (Culturing Nerve Cells in: G. Banker, and K. Goslin (eds.), MIT Press, Cambridge, Mass. 1991, pp. 309–336). The dissected cortices were dissociated enzymatically with trypsin and mechanically by passing through a fine pipette. The cells were cultured in α-MEM (Life Technologies, MD) containing 10% fetal bovine serum and antibiotics. After 11 days in culture, the primary cells were replated at a density of 10,000 cells/cm^2 and grown until confluent. At least 24 hr before treatment, the cells were washed twice with PBS and then incubated with serum-free α-MEM containing N2 supplements (Life Technologies, MD).
Cytokine Measurements For IL-1β and TNF-α measurements, 7.5×10^4 cells/well were plated in a 48-well tissue culture plate. After 48 hr of incubation in serum-free α-MEM containing N2 supplements, the cells were treated with 10 μM of various amyloid or non-amyloidogenic peptides for 12 hr. Conditioned media from duplicate wells for each sample were collected and stored at −80° C. until use. Cytokine levels in the conditioned media were determined by ELISA kits from R&D systems and performed according to the manufacturer's protocols.

As to GSNKGAIIGLM [Aβ25–35], the “enhancement of MTT formazan exocytosis” value with B12 cells [1] was “dramatically enhance”. In the data set with Primary astrocytes, the “IL-1β” value was 754 ± 78 pg/mL and the “TNF-α” value was 350 ± 46 pg/mL. In the data set with B12 cells [2], the “ability to induce MTT formazan exocytosis (in words)” value (from here on “ability”) is recorded as “always active”.
With “insulin: non-amyloidogenic protein forming fibrils with cross β structure under denaturing conditions”, in the data set on B12 cells [1], the “induction of MTT formazan exocytosis by protein fibrils” value is given as “induce MTT formazan exocytosis”.
For `Nc1c(/N=N/c2ccc(-c3ccc(/N=N/c4cc(S(=O)(=O)O)c5ccccc5c4N)cc3)cc2)cc(S(=O)(=O)O)c2ccccc12` [Congo red], the “block of the Aβ-induced MTT formazan exocytosis” value in data set [3] stood at 90%.
On to “Aβ1-40: amyloid beta 1-40, 40 amino acid form of amyloid beta peptide; lot not specified”, for which the “enhancement of MTT formazan exocytosis” value in the data set on B12 cells [1] is “dramatically enhance”. Also, the “ability” value in the data set with B12 cells [2] was “variable among different manufacturer's lots”.
Regarding `CC[C@H](C)[C@H](NC(=O)[C@H](C)NC(=O)CNC(=O)[C@H](Cc1ccccc1)NC(=O)[C@H](CC(N)=O)NC(=O)[C@H](CC(N)=O)NC(=O)[C@H](CO)NC(=O)[C@H](CO)NC(=O)[C@H](Cc1c[nH]cn1)NC(=O)[C@@H](NC(=O)[C@H](CC(C)C)NC(=O)[C@H](Cc1ccccc1)NC(=O)[C@H](CC(N)=O)NC(=O)[C@H](C)NC(=O)[C@H](CC(C)C)NC(=O)[C@H](CCCNC(=N)N)NC(=O)[C@H](CCC(N)=O)NC(=O)[C@@H](NC(=O)[C@H](C)NC(=O)[C@@H]1CSSC[C@H](NC(=O)[C@@H](N)CCCCN)C(=O)N[C@@H](CC(N)=O)C(=O)N[C@@H]([C@@H](C)O)C(=O)N[C@@H](C)C(=O)N[C@@H]([C@@H](C)O)C(=O)N1)[C@@H](C)O)C(C)C)C(=O)N[C@@H](CC(C)C)C(=O)N[C@@H](CO)C(=O)N[C@@H](CO)C(=O)N[C@H](C(=O)N[C@@H](CC(N)=O)C(=O)N[C@H](C(=O)NCC(=O)N[C@@H](CO)C(=O)N[C@@H](CC(N)=O)C(=O)N[C@H](C(=O)N[C@@H](Cc1ccc(O)cc1)C(N)=O)[C@@H](C)O)C(C)C)[C@@H](C)O` [Human amylin], in the data set with B12 cells [2] (percentage of B12 cells exocytosing MTT formazan, 10 μM for 16 hr at 37° C., followed by 30 min MTT reduction, mean ±S.E.M.), the “MTT (%)” value stood at 97 ± 1 %. In addition, the “neurotoxicity to rat hippocampal neurons (in words)” value in the data set on Hippocampal neurons [4] (peptide preparations) is reported as “kill rat hippocampal neurons”. For the same compound, the “Viable Neurons (% of control)” value in the data set with Hippocampal neurons [4] (rat hippocampal neurons, 20 μM peptide solutions, 48 hours after treatment, mean ±S.E.M.) was 32 ± 7 % of control.
With `CC(C)C[C@H](NC(=O)[C@H](CC(N)=O)NC(=O)[C@H](CC(N)=O)NC(=O)[C@H](CO)NC(=O)[C@H](CO)NC(=O)[C@H](CCCNC(=N)N)NC(=O)[C@@H](NC(=O)[C@H](CC(C)C)NC(=O)[C@H](Cc1ccccc1)NC(=O)[C@H](CC(N)=O)NC(=O)[C@H](C)NC(=O)[C@H](CC(C)C)NC(=O)[C@H](CCCNC(=N)N)NC(=O)[C@H](CCC(N)=O)NC(=O)[C@@H](NC(=O)[C@H](C)NC(=O)[C@@H]1CSSC[C@H](NC(=O)[C@@H](N)CCCCN)C(=O)N[C@@H](CC(N)=O)C(=O)N[C@@H]([C@@H](C)O)C(=O)N[C@@H](C)C(=O)N[C@@H]([C@@H](C)O)C(=O)N1)[C@@H](C)O)C(C)C)C(=O)NCC(=O)N1CCC[C@H]1C(=O)N[C@H](C(=O)N[C@@H](CC(C)C)C(=O)N1CCC[C@H]1C(=O)N1CCC[C@H]1C(=O)N[C@H](C(=O)N[C@@H](CC(N)=O)C(=O)N[C@H](C(=O)NCC(=O)N[C@@H](CO)C(=O)N[C@@H](CC(N)=O)C(=O)N[C@H](C(=O)N[C@@H](Cc1ccc(O)cc1)C(N)=O)[C@@H](C)O)C(C)C)[C@@H](C)O)C(C)C` [Rat amylin], the “astrocyte activation as indicated by the morphological changes of the astrocytes (in words)” value in the data set on astrocytes was “not active”. Also, the “enhancement of MTT formazan exocytosis” value in the data set on B12 cells [1] is listed as “do not enhance”. For the same compound, the “neurotoxicity to rat hippocampal neurons (in words)” value in the data set with Hippocampal neurons [5] is “not active”. For the same compound, in the data set on Primary astrocytes, the “IL-1β” value amounted to 46 ± 7 pg/mL and the “TNF-α” value is 48 ± 8 pg/mL. Besides, the “ability” value in the data set on B12 cells [2] is on record as “not active”.
For Aβ1-28: nonfibrillogenic peptide, in the data set with B12 cells [1], the “enhancement of MTT formazan exocytosis” value is given as “do not enhance”.
Regarding “Aβ17-40: nonfibrillogenic peptide (LVFFAEDVGSNKGAIIGLMVGGVV; Amyloid-beta protein 40; UniProt P05067 688-711, looked up, fragment)”, the “enhancement of MTT formazan exocytosis” value with B12 cells [1] is given as “do not enhance”.
Consider “glucagon: non-amyloidogenic protein forming fibrils with cross β structure under denaturing conditions”, for which the “induction of MTT formazan exocytosis by protein fibrils” value with B12 cells [1] is recorded as “induce MTT formazan exocytosis”.
